Measurements taken from patent publication US5451599A, “Complex salts of hematoporphyrin and of its derivatives, their synthesis, and therapeutic agent” (Wojskowa Akademia Techniczna im. Jaroslawa Dabrowskiego, priority 1991, dated 1995).

Experiments:
[1] = system: Hela (cervix uteri cancer cells); assay: 48 h incubation with the salts: cell fluorescence, living cells, multiplication coefficient (Table 1); assay type: cell-based, Human; conditions: 48 hs, 50 mcg/ml
Description: (§1) New compounds of formula 1 were tested on cell lines. Use was made of 9 different neoplastic cell lines which were incubated for 48 hs with various new salts of protoporphyrin and with a new salt of the conventionally applied HpD preparation/hematoporphyrin derivatives/obtained according to Lipson et al. All compounds were used in the form of aqueous solutions, at a concentration of 50 mcg/ml. Determination was made of:
(§2) 1/ Cell fluorescence /F/: after 48 hs incubation, the cells were washed away, the intensity of fluorescence was measured in a fluorescence microscope and was expressed on an arbitrary scale of 0-4 scores;
(§3) 2/ Percentage of living cells /P %/ after 48 hs incubation;
(§4) 3/ Cell multiplication coefficient /M/ in the presence of different preparations, expressed as: [formula]

CL = assay: as above; assay type: cell-based; conditions: 48 hs, 50 mcg/ml
Description: as §1, §2, §3, §4

[2] = system: MA-104 (Rhesus monkey embryo kidney cancer cells); assay: as above; assay type: cell-based; conditions: 48 hs, 50 mcg/ml
Description: as §1, §2, §3, §4

PZ = assay: as above; assay type: cell-based; conditions: 48 hs, 50 mcg/ml
Description: as §1, §2, §3, §4

[3] = system: KB (oral cavity cancer cells); assay: 48 h incubation with the salts: cell fluorescence, living cells, multiplication coefficient (Table 2); assay type: cell-based, Human; conditions: 48 hs, 50 mcg/ml
Description: as §1, §2, §3, §4
KB oral cavity cancer cells

[4] = system: HBT-39/w (breast cancer cells); assay: as above; assay type: cell-based, Human; conditions: 48 hs, 50 mcg/ml
Description: as §1, §2, §3, §4

[5] = system: GR (GRMT/F6, mammary gland cancer cells of GR-strain mice); assay: as above; assay type: cell-based, Murine; conditions: 48 hs, 50 mcg/ml
Description: as §1, §2, §3, §4
GRMT/F6 mammary gland cancer cells of GR-strain mice

[6] = system: HEp-2 (larynx cancer cells); assay: 48 h incubation with the salts: cell fluorescence, living cells, multiplication coefficient (Table 3); assay type: cell-based, Human; conditions: 48 hs, 50 mcg/ml
Description: as §1, §2, §3, §4
Hep-2 larynx cancer cells

[7] = system: Mm (Mm5MT/C1, mammary gland cancer cells of C3H-strain mice); assay: as above; assay type: cell-based, Murine; conditions: for Cell fluorescence /F/ / Cell multiplication coefficient /M/ / Percentage of living cells /P %/: Mm, 48 hs, 50 mcg/ml
Description: as §1, §2, §3, §4
mammary gland cancer cells of C3H-strain mice

[8] = system: T-47D (breast cancer cells); assay: as above; assay type: cell-based, Human; conditions: 48 hs, 50 mcg/ml
Description: as §1, §2, §3, §4
T-47D breast cancer cells

[9] = system: transplanted mammary gland cancer; assay: survival of C3H mice with transplanted mammary gland cancer, with and without He-Ne laser irradiation (FIG. 6); assay type: in vivo; conditions: 10 mg/kg body weight; with or without He-Ne laser 150 J/cm^2
Description: FIG. 6 is a graph showing the survival rate of C3H mice with transplanted mammary gland cancer after administration of compounds of the invention (with and without irradiation) and a control.
The new compounds were also studied in animals.
In animal studies, C3H mice with transplanted mammary gland cancer were administered both above-mentioned compounds in a dose of 10 mg/kg body weight, in two variants: mice irradiated with He-Ne laser in a dose of 150 J/cm^2 /in FIG. 6, marked by the letter L next to the symbol of the compound/and not irradiated ones. The results are recorded in the Figure.

Compound | Cell fluorescence /F/ [1] | Cell multiplication coefficient /M/ [1] | Percentage of living cells /P %/ [1] [%] | Cell fluorescence /F/ (CL) | Cell multiplication coefficient /M/ (CL) | Percentage of living cells /P %/ (CL) [%] | Cell fluorescence /F/ [2] | Cell multiplication coefficient /M/ [2] | Percentage of living cells /P %/ [2] [%] | Cell fluorescence /F/ (PZ) | Cell multiplication coefficient /M/ (PZ) | Percentage of living cells /P %/ (PZ) | Cell multiplication coefficient /M/ [3] | Percentage of living cells /P %/ [3] [%] | Cell fluorescence /F/ [4] | Cell multiplication coefficient /M/ [4] | Percentage of living cells /P %/ [4] [%] | Cell fluorescence /F/ [5] | Cell multiplication coefficient /M/ [5] | Percentage of living cells /P %/ [5] [%] | further results
CC1=C(CCC(=O)O)c2cc3[nH]c(cc4nc(cc5[nH]c(cc1n2)c(C(C)NC(CCCCN)C(=O)O)c5C)C(C(C)NC(CCCCN)C(=O)O)=C4C)c(C)c3CCC(=O)O.N=C(N)NCCC[C@H](N)C(=O)O.N=C(N)NCCC[C@H](N)C(=O)O (stereo not drawn) [PP/Lys/2 /Arg/2, l-arginine di/N-lysyl/-protoporphyrinate] | +++ | 0,16 | 16 | + | 0,30 | 30 | - | 0,10 | 0 | + | 0,50 | 50% | 0,12 | 12 | ++++ | 0,44 | 47 | +++ | 0,75 | 25 | Cell fluorescence /F/ [3]: -; Cell fluorescence /F/ [6]: ++; Cell multiplication coefficient /M/ [6]: 0,42; Percentage of living cells /P %/ [6]: 10%; Cell fluorescence /F/ [7]: ++; Cell multiplication coefficient /M/ [7]: 0,80; Percentage of living cells /P %/ [7]: 33%; activity in studies of the Mm5MT/C1 cell line (in words) ([7]; mammary gland cancer of C3H mice): one of the most active ones; Cell fluorescence /F/ [8]: ++; Cell multiplication coefficient /M/ [8]: 0,92; Percentage of living cells /P %/ [8]: 57%; mice survival [9]: most active, greatly prolonging mice survival
CC1=C(CCC(=O)O)c2cc3[nH]c(cc4nc(cc5[nH]c(cc1n2)c(C(C)NC(CO)C(=O)O)c5C)C(C(C)NC(CO)C(=O)O)=C4C)c(C)c3CCC(=O)O.N=C(N)NCCC[C@H](N)C(=O)O.N=C(N)NCCC[C@H](N)C(=O)O (stereo not drawn) [PP/Ser/2 /Arg/2, l-arginine di/N-seryl/-protoporphyrinate] | ++ | 0,50 | 55 | + | 0 | 0 | - | 0,16 | 0 | ++ | 0,02 | 2,5% | 0 | 0 | ++ | 0,50 | 33 | + | 0,12 | 12 | Cell fluorescence /F/ [3]: ++; Cell fluorescence /F/ [6]: +; Cell multiplication coefficient /M/ [6]: 0,50; Percentage of living cells /P %/ [6]: 25%; Cell fluorescence /F/ [7]: +; Cell multiplication coefficient /M/ [7]: 0,37; Percentage of living cells /P %/ [7]: 37%; Cell fluorescence /F/ [8]: +++; Cell multiplication coefficient /M/ [8]: 0,60; Percentage of living cells /P %/ [8]: 40%
CC1=C(CCC(=O)O)c2cc3[nH]c(cc4nc(cc5[nH]c(cc1n2)c(C(C)NC(Cc1c[nH]c2ccccc12)C(=O)O)c5C)C(C(C)NC(Cc1c[nH]c2ccccc12)C(=O)O)=C4C)c(C)c3CCC(=O)O.N=C(N)NCCC[C@H](N)C(=O)O.N=C(N)NCCC[C@H](N)C(=O)O (stereo not drawn) [PP/Trp/2 /Arg/2, l-arginine di/N-tryptophanyl/-protoporphyrinate] | +++ | 0,62 | 62 | - | 0,50 | 50 | + | 0,25 | 25 | + | 0,50 | 50% | 0,21 | 21 | ++++ | 0,11 | 18 | +++ | 0,62 | 62 | Cell fluorescence /F/ [6]: +++; Cell multiplication coefficient /M/ [6]: 0,15; Percentage of living cells /P %/ [6]: 15%; Cell fluorescence /F/ [7]: +++; Cell multiplication coefficient /M/ [7]: 0,33; Percentage of living cells /P %/ [7]: 11%; Cell fluorescence /F/ [8]: +; Cell multiplication coefficient /M/ [8]: 0,13; Percentage of living cells /P %/ [8]: 13%
l-arginine di/N-arginyl/-protoporphyrinate [PP/Arg/2 /Arg/2] | ++++ | 0,28 | 11 | ++ | 0,03 | 4 | ++ | 0,42 | 31 | + | 0,10 | 10% | 0,16 | 16 | ++++ | 0,28 | 28 | +++ | 0,12 | 12 | Cell fluorescence /F/ [3]: +; Cell fluorescence /F/ [6]: +; Cell multiplication coefficient /M/ [6]: 0,14; Percentage of living cells /P %/ [6]: 5%; Cell fluorescence /F/ [7]: +++; Cell multiplication coefficient /M/ [7]: 0,38; Percentage of living cells /P %/ [7]: 12%; Cell fluorescence /F/ [8]: +++; Cell multiplication coefficient /M/ [8]: 0,40; Percentage of living cells /P %/ [8]: 40%
